Experimental data from US20240238212A1, “LIPID COMPOUNDS AND LIPID NANOPARTICLE COMPOSITIONS” (SUZHOU ABOGEN BIOSCIENCES CO., LTD., priority 2022, published 2024).

Legend:
[1] = Encapsulation efficiency of lipid nanoparticles (Quant-it Ribogreen RNA assay); assay type: physicochemical; settings: LNP comprising the compound, hEPO mRNA
Description: (§1) Briefly, a cationic lipid provided herein, DSPC, cholesterol, and PEG-lipid were solubilized in ethanol at a molar ratio of 50:10:38.5:1.5, and mRNA were diluted in 10 to 50 mM citrate buffer, pH=4. The LNPs were prepared at a total lipid to mRNA weight ratio of approximately 10:1 to 30:1 by mixing the ethanolic lipid solution with the aqueous mRNA solution at a volume ratio of 1:3 using a microfluidic apparatus, total flow rate ranging from 9-30 mL/min. Ethanol were thereby removed and replaced by DPBS using dialysis. Finally, the lipid nanoparticles were filtered through a 0.2 μm sterile filter.
(§2) Lipid nanoparticle size were determined by dynamic light scattering using a Malvern Zetasizer Nano ZS (Malvern UK) using a 173° backscatter detection mode. The encapsulation efficiency of lipid nanoparticles were determined using a Quant-it Ribogreen RNA quantification assay kit (Thermo Fisher Scientific, UK) according to the manufacturer's instructions.

[2] = Apparent pKa of LNP formulations (TNS fluorescence assay); assay type: physicochemical; settings: LNP formulation, TNS assay (Table 2)
Description: As reported in literature, the apparent pKa of LNP formulations correlates with the delivery efficiency of LNPs for nucleic acids in vivo. The apparent pKa of each formulation was determined using an assay based on fluorescence of 2-(p-toluidino)-6-napthalene sulfonic acid (TNS). LNP formulations comprising of cationic lipid/DSPC/cholesterol/DMG-PEG (50/10/38.5/1.5 mol %) in PBS were prepared as described above. TNS was prepared as a 300 μM stock solution in distilled water. LNP formulations were diluted to 0.1 mg/mL total lipid in 3 mL of buffered solutions containing 50 mM sodium citrate, 50 mM sodium phosphate, 50 mM sodium borate, and 30 mM sodium chloride where the pH ranged from 3 to 9. An aliquot of the TNS solution was added to give a final concentration of […] and following vortex mixing fluorescence intensity was measured at room temperature in a Molecular Devices Spectramax iD3 spectrometer using excitation and mission wavelengths of 325 nm and 435 nm. A sigmoidal best fit analysis was applied to the fluorescence data and the pKa value was measured as the pH giving rise to half-maximal fluorescent intensity.

[3] = test system: human erythropoietin (hEPO) mRNA expression; test: Animal Study 1: hEPO mRNA LNPs i.v. in mice, serum EPO by ELISA; assay type: in vivo; settings: female ICR mice, 0.5 mg/kg tail vein injection, blood e.g. 6 hours post administration; relative to MC3 LNP
Description: Lipid nanoparticles comprising compounds in the following table encapsulating human erythropoietin (hEPO) mRNA were systemically administered to 6-8 week old female ICR mice (Xipuer-Bikai, Shanghai) at 0.5 mg/kg dose by tail vein injection and mice blood were sampled at specific time points (e.g., 6 hours) post administration. In addition to the aforementioned tested groups, lipid nanoparticles comprising dilinoleylmethyl-4-dimethylaminobutyrate (DLin-MC3-DMA, usually abbreviated to MC3) encapsulating hEPO mRNA were similarly administered at the same dose to age and gender comparative groups of mice as a positive control.
Mice were euthanized by CO2 overdoses after the last sampling time point. Serum were separated from total blood by centrifugation at 5000 g for 10 minutes at 4 T, snap-frozen and stored at −80 T for analysis. ELISA assay were carried out using a commercial kit (DEP00, R&D systems) according to manufacturer's instructions.
Characteristics of tested lipid nanoparticles, including EPO expression levels over MC3 measured from the tested group are listed in the table below.

[4] = Lipid nanoparticle size and polydispersity by dynamic light scattering; assay type: physicochemical; settings: LNP comprising the compound, hEPO mRNA; for Size (nm): cationic lipid/DSPC/cholesterol/PEG-lipid 50:10:38.5:1.5
Description: as §1, §2

SMILES	Encapsulation efficiency [1] [%]	Apparent pKa [2]	EPO expression over MC3 [3]	Polydispersity [4]	Size (nm) [4] [nm]
CCCCCCCC(=O)OCC(COC(=O)CCCCCCC)COC(=O)CCCCCN(CCCO)CCCCCC(=O)OCC(COC(=O)CCCCCCC)COC(=O)CCCCCCC [Compound 66]	95.46	6.379	A (≥2)	0.010	113.3
CCCCC/C=C\C/C=C\CCCCCCCC(=O)OCCCCCCN(CCO)CCCCC(COC(=O)CCCCCCC)COC(=O)CCCCCCC [Compound 22]	89.98	6.748	A (≥2)	0.051	79.16
CCCCCCCCCCCCCCCCCC(=O)OCCCCCCN(CCCCC(COC(=O)CCCCCCC)COC(=O)CCCCCCC)CCCNc1c(N(C)C)c(=O)c1=O [Compound 41]	95.98			0.08791	55.42
CCCCCCCC(=O)OCC(COC(=O)CCCCCCC)OCCCN(CCCOC(COC(=O)CCCCCCC)COC(=O)CCCCCCC)CCN(CCO)C1CCCCC1 [Compound 14]	82.84	6.457	A (≥2)	0.049	91.43
CCCCCCCC(=O)OCC(CCCCN(CCCCC(COC(=O)CCCCCCC)COC(=O)CCCCCCC)[C@H](CO)C(C)C)COC(=O)CCCCCCC [Compound 46]	73.99			0.135	68.21
CCCCC/C=C\C/C=C\CCCCCCCC(=O)OCCCCCCN(CCCCC(COC(=O)CCCCCCC)COC(=O)CCCCCCC)C1CCC(O)CC1 (stereo not drawn) [Compound 37]	88.34	6.69	A (≥2)	0.005279	93.13
CCCCCCCC(=O)OCC(COC(=O)CCCCCCC)COC(=O)CCCCCN(CCCCCO)CCCCCC(=O)OCC(COC(=O)CCCCCCC)COC(=O)CCCCCCC [Compound 68]	94.91	6.582	A (≥2)	0.010	100.16
CCCCCCCC(=O)OCC(CCCCN(CCCCC(COC(=O)CCCCCCC)COC(=O)CCCCCCC)CCN(CCO)C1CCC1)COC(=O)CCCCCCC [Compound 2]			A (≥2)		
CCCCCCCC(=O)OCC(CCCCN(CCCCC(COC(=O)CCCCCCC)COC(=O)CCCCCCC)CCCNc1c(N(CC)CC)c(=O)c1=O)COC(=O)CCCCCCC [Compound 31]	88.17	6.221	A (≥2)	0.073	72.36
CCCCCCCCCCC(=O)OCC(COC(=O)CCCCCCCCCC)COC(=O)CCCCCN(CCO)CCCCCC(=O)OCC(COC(=O)CCCCCCCCCC)COC(=O)CCCCCCCCCC [Compound 72]	96.28	6.728	A (≥2)	0.111	72.07
CCCCCCCC/C=C\CCCCCCCC(=O)OCCCCCCN(CCCCC(COC(=O)CCCCCCC)COC(=O)CCCCCCC)C1CC(O)C1 (stereo not drawn) [Compound 39]	89.27	6.801	C (≥0.1 and <1)	0.002	84.01
CCCCCCCCCCCCOC(=O)CCCCCN(CCO)CCCCCC(=O)OCC(COC(=O)CCCCCCC)COC(=O)CCCCCCC [Compound 4]		6.943	C (≥0.1 and <1)		
CCCCCCCC(=O)OCC(C)(COC(=O)CCCCCCC)COC(=O)CCCCCN(CCO)CCCCCC(=O)OCC(C)(COC(=O)CCCCCCC)COC(=O)CCCCCCC [Compound 64]	94.94	6.575	A (≥2)	0.094	83.57
CCCCCCCC(=O)OCC(COC(=O)CCCCCCC)OCCCN(CCCCCO)CCCOC(COC(=O)CCCCCCC)COC(=O)CCCCCCC [Compound 25]	82.87	6.418	B (≥1 and <2)	0.085	98.05
CCCCCCCCCCCC(=O)OCC(COC(=O)CCCCCCCCCCC)COC(=O)CCCCCN(CCO)CCCCCC(=O)OCC(COC(=O)CCCCCCCCCCC)COC(=O)CCCCCCCCCCC [Compound 73]	96.37	6.536	C (≥0.1 and <1)	0.010	71.34
CCCCCCCCC(CCCCCC)COC(=O)CCCCCN(CCO)CCCCCC(=O)OCC(C)(COC(=O)CCCCCCC)COC(=O)CCCCCCC (stereo not drawn) [Compound 83]	94.79	6.547	A (≥2)	0.051	67.54
CCCCCCCCOC(CCCCCN(CCO)CCCCCC(OCCCCCCCC)OCCCCCCCC)OCCCCCCCC [Compound 15]	94.67	6.219	C (≥0.1 and <1)	0.096	77.33
CCCCCCCC(=O)OCC(CCCCN(CCCCCO)CCCCC(COC(=O)CCCCCCC)COC(=O)CCCCCCC)COC(=O)CCCCCCC [Compound 3]	88.90	6.726	A (≥2)	0.101	72.97
CCCCCCCCCCC(=O)OCCCCCCN(CCCCC(COC(=O)CCCCCCC)COC(=O)CCCCCCC)CCCNc1c(N(C)C)c(=O)c1=O [Compound 40]	93.31			0.1163	66.72
CCCCCCCC(=O)OCC(CCCCN(CCCCC(COC(=O)CCCCCCC)COC(=O)CCCCCCC)CC1(CO)CCC1)COC(=O)CCCCCCC [Compound 45]	86.40			0.14	61.88
CCCCCCCCC(CCCCCC)C(=O)OCC(CCCCN(CCO)CCCCC(COC(=O)CCCCCCC)COC(=O)CCCCCCC)COC(=O)C(CCCCCC)CCCCCCCC (stereo not drawn) [Compound 12]	87.61		D (<0.1)	0.053	56.95
CCCCCCCC(=O)OCC(CCCCN(CCO)CCCCC(COC(=O)CCCCCCC)COC(=O)CCCCCCC)COC(=O)CCCCCCC [Compound 1]			A (≥2)		
CCCCCCCC(=O)OCC(CCCCN(CCCCC(COC(=O)CCCCCCC)COC(=O)CCCCCCC)[C@@H](CO)C(C)C)COC(=O)CCCCCCC [Compound 44]	86.17			0.126	74.63
CCCCCCCC(=O)OCC(CCCCN(CCCCC(COC(=O)CCCCCCC)COC(=O)CCCCCCC)CCC1(O)CCCCC1)COC(=O)CCCCCCC [Compound 50]	83.93			0.117	67.07
CCCCCCCC(=O)OCC(CCCCN(CCCCC(COC(=O)CCCCCCC)COC(=O)CCCCCCC)CC1(CO)CCCC1)COC(=O)CCCCCCC [Compound 49]	83.82			0.111	69.44
